# Test results published in EP4667483A1, “HUMAN TRANSFERRIN RECEPTOR-BINDING PEPTIDE” (JCR Pharmaceuticals Co., Ltd., priority 2023, dated 2024).
# Numbered stars: 1 amine (or outer) side, 2 acyl side, 3 side chain; on linkers, the order of the positions; unused ones are H or OH. Bridge positions count the residues as written; N and C are the ends. Square brackets hold non-standard residues; d marks the D form. Side chains are listed from the residue outwards. Peptide text beside a SMILES is read from it. * marks the point of attachment. Trp(1-CH2COOH) = N[C@@H](Cc1cn(CC(=O)O)c2ccccc12)C(=O)O; NMePhe(4-COOH) = CN[C@@H](Cc1ccc(C(=O)O)cc1)C(=O)O; X1 = O=C([C@H](Cc1cccc(C(=O)[*:3])c1)N[*:1])[*:2]; Nle(6-morpholino) = N[C@@H](CCCCN1CCOCC1)C(=O)O; Phe(3-COOH) = N[C@@H](Cc1cccc(C(=O)O)c1)C(=O)O; Trp(7-aza) = N[C@@H](Cc1c[nH]c2ncccc12)C(=O)O; NMePhe(3-Cl) = CN[C@@H](Cc1cccc(Cl)c1)C(=O)O; Piperazinyl(4-CH2COOH) = O=C(O)CN1CCN(*)CC1; 3Pal(6-NH2) = Nc1ccc(C[C@H](N)C(=O)O)cn1; NMeW = CN[C@@H](Cc1c[nH]c2ccccc12)C(=O)O; Lys(N3) = [N-]=[N+]=NCCCC[C@H](N)C(=O)O; NMeY = CN[C@@H](Cc1ccc(O)cc1)C(=O)O; Nva(3-Et) = CCC(CC)[C@H](N)C(=O)O; NMeF = CN[C@@H](Cc1ccccc1)C(=O)O; 4Pal = N[C@@H](Cc1ccncc1)C(=O)O; PEG4 = NCCOCCOCCOCCOCCC(=O)O; Carboxymethyl = O=C(O)C*; CO = O=C([*:1])[*:2]
# What was measured:
# [1] = target: T1, human transferrin receptor (hTfR) (Homo sapiens, UniProt P02786); assay: SPR measurement under pH 6.0 conditions (Biacore T200, NTA chip, immobilized hTfR); format: binding; conditions: read-out: hTfR SPR pH6.0 KD
# [2] = target: T1, human transferrin receptor (hTfR); assay: SPR measurement under pH 7.4 conditions (Biacore T200, CM3 chip, hTfR captured by His Tag antibody); format: binding; conditions: read-out: hTfR SPR pH7.4 KD
# [3] = SPR, pH 6.0, peptide with the linker named in the table
# [4] = SPR, pH 7.4, peptide with the linker named in the table
# T1 sequence (P02786 whole entry): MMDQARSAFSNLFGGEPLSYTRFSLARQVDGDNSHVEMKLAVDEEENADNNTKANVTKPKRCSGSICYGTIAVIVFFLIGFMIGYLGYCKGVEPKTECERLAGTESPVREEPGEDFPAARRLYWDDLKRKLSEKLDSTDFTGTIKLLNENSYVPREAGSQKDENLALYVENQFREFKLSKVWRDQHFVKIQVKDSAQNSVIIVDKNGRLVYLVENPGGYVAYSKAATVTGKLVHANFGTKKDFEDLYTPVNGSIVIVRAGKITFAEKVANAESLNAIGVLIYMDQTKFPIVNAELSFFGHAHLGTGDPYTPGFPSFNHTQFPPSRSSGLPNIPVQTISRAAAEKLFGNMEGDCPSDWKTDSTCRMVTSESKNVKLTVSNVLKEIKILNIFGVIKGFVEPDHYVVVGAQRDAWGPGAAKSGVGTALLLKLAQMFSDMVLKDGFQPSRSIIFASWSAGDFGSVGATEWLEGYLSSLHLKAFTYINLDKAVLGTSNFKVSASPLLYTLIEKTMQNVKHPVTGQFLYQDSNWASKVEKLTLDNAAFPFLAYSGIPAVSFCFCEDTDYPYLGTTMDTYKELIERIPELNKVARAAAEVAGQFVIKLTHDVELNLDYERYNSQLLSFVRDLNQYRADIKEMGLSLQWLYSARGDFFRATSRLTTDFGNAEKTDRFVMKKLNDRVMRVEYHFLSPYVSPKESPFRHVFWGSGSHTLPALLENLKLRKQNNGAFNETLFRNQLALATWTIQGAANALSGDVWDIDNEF
Structure (SMILES),"Kd ([1]; pH 6.0, single-cycle kinetics) [nM]","Kd ([2]; pH 7.4, single-cycle kinetics) [nM]","Kd [1, 3] [nM]","Kd [2, 4] [nM]",also measured
CCC(CC)[C@@H]1NC(=O)[C@H](Cc2ccc(O)cc2)NC(=O)[C@H](Cc2ccc(O)cc2)NC(=O)[C@H](CC(N)=O)NC(=O)[C@H](Cc2c[nH]c3ccccc23)N(C)C(=O)[C@H](C(C)C)NC(=O)[C@H](Cc2ccccc2)N(C)C(=O)[C@H](C(C)C)NC(=O)[C@H](C)NC(=O)CSC[C@@H](C(=O)NCC(=O)N[C@@H](CCCCN=[N+]=[N-])C(N)=O)NC(=O)[C@H](Cc2ccc(C(=O)O)cc2)N(C)C(=O)[C@H](Cc2cccc(C(=O)NCCOCCOCCOCCOCCC(=O)O)c2)NC(=O)[C@H](CCCNC(=N)N)NC(=O)[C@H](CCCCN)NC(=O)[C@H]([C@@H](C)CC)NC1=O [compound 194] ({CH2CO}-AV[NMeF]V[NMeW]NYY[Nva(3-Et)]IKR[X1](PEG4)[NMePhe(4-COOH)]CG[Lys(N3)]-NH2; thioether N-15),–,–,–,–,"Kd ([1]; SPR, pH 6.0, Table 1-3-2-2): 14.9 nM; Kd ([2]; SPR, pH 7.4, Table 1-3-2-2): 4.62 nM"
CC[C@H](C)[C@@H]1NC(=O)[C@H](Cc2ccc(OCC(=O)N3CCN(CC(=O)O)CC3)cc2)NC(=O)[C@H](Cc2ccc(O)cc2)NC(=O)[C@H](CC(N)=O)NC(=O)[C@H](Cc2cn(CC(=O)O)c3ccccc23)NC(=O)[C@H](C(C)C)NC(=O)[C@H](Cc2cccc(Cl)c2)N(C)C(=O)[C@H](C(C)C)NC(=O)[C@H](C)NC(=O)CSC[C@@H](C(=O)NCCOCCOCCOCCOCCC(N)=O)NC(=O)[C@H](Cc2ccc(O)cc2)N(C)C(=O)[C@H](Cc2cccc(C(=O)O)c2)NC(=O)[C@H](CCCNC(=N)N)NC(=O)[C@H](CCC(N)=O)NC(=O)[C@H]([C@@H](C)CC)NC1=O [compound 36],44,2.47,–,–,–
CCC(CC)[C@@H]1NC(=O)[C@H](Cc2ccc(O)cc2)NC(=O)[C@H](Cc2ccc(O)cc2)NC(=O)[C@H](CC(N)=O)NC(=O)[C@H](Cc2c[nH]c3ccccc23)N(C)C(=O)[C@H](C(C)C)NC(=O)[C@H](Cc2ccccc2)N(C)C(=O)[C@H](C(C)C)NC(=O)[C@H](C)NC(=O)CSC[C@@H](C(=O)NCCOCCOCCOCCOCCC(N)=O)NC(=O)[C@H](Cc2ccc(C(=O)O)cc2)N(C)C(=O)[C@H](Cc2cccc(C(=O)NCCOCCOCCOCCOCCC(=O)O)c2)NC(=O)[C@H](CCCNC(=N)N)NC(=O)[C@H](CCCCN)NC(=O)[C@H]([C@@H](C)CC)NC1=O [compound 122] ({CH2CO}-AV[NMeF]V[NMeW]NYY[Nva(3-Et)]IKR[X1](PEG4)[NMePhe(4-COOH)]C[PEG4]-NH2; thioether N-15),–,–,15.3,5.19,–
CC[C@H](C)[C@@H]1NC(=O)[C@H](Cc2ccc(OCC(=O)O)cc2)NC(=O)[C@H](Cc2ccc(N)nc2)NC(=O)[C@H](CC(N)=O)NC(=O)[C@H](Cc2c[nH]c3ncccc23)NC(=O)[C@H](C(C)C)NC(=O)[C@H](Cc2cccc(Cl)c2)N(C)C(=O)[C@H](C(C)C)NC(=O)[C@H](C)NC(=O)CSC[C@@H](C(=O)NCCOCCOCCOCCOCCC(N)=O)NC(=O)[C@H](Cc2ccc(O)cc2)N(C)C(=O)[C@H](Cc2ccncc2)NC(=O)[C@H](CCCCNC(=O)N2CCN(CC(=O)O)CC2)NC(=O)[C@H](CCCCN2CCOCC2)NC(=O)[C@H]([C@@H](C)CC)NC1=O [compound 9] ({CH2CO}-AV[NMePhe(3-Cl)]V[Trp(7-aza)]N[3Pal(6-NH2)]Y(Carboxymethyl)II[Nle(6-morpholino)]K([CO-Piperazinyl(4-CH2COOH)])[4Pal][NMeY]C[PEG4]-NH2; thioether N-15),774,29.1,–,–,–
CC[C@H](C)[C@@H]1NC(=O)[C@H](Cc2ccc(OCC(=O)O)cc2)NC(=O)[C@H](Cc2ccc(O)cc2)NC(=O)[C@H](CC(N)=O)NC(=O)[C@H](Cc2c[nH]c3ccccc23)N(C)C(=O)[C@H](C(C)C)NC(=O)[C@H](Cc2cccc(Cl)c2)N(C)C(=O)[C@H](C(C)C)NC(=O)[C@H](C)NC(=O)CSC[C@@H](C(=O)NCCOCCOCCOCCOCCC(N)=O)NC(=O)[C@H](Cc2ccc(C(=O)NCCOCCOCCOCCOCCC(=O)O)cc2)N(C)C(=O)[C@H](Cc2cccc(C(=O)O)c2)NC(=O)[C@H](CCCNC(=N)N)NC(=O)[C@H](CCCCN)NC(=O)[C@H]([C@@H](C)CC)NC1=O [compound 178] ({CH2CO}-AV[NMePhe(3-Cl)]V[NMeW]NYY(Carboxymethyl)IIKR[Phe(3-COOH)][NMePhe(4-COOH)](PEG4)C[PEG4]-NH2; thioether N-15),3.1,0.391,–,–,–
CC[C@H](C)[C@@H]1NC(=O)[C@H](Cc2ccc(OCC(=O)O)cc2)NC(=O)[C@H](Cc2ccc(N)nc2)NC(=O)[C@H](CC(N)=O)NC(=O)[C@H](Cc2c[nH]c3ncccc23)NC(=O)[C@H](C(C)C)NC(=O)[C@H](Cc2cccc(Cl)c2)N(C)C(=O)[C@H](C(C)C)NC(=O)[C@H](C)NC(=O)CSC[C@@H](C(=O)NCCOCCOCCOCCOCCC(N)=O)NC(=O)[C@H](Cc2ccc(O)cc2)N(C)C(=O)[C@H](Cc2ccncc2)NC(=O)[C@H](CCCCN2CCOCC2)NC(=O)[C@H](CCCCNC(=O)N2CCN(CC(=O)O)CC2)NC(=O)[C@H]([C@@H](C)CC)NC1=O [compound 15] ({CH2CO}-AV[NMePhe(3-Cl)]V[Trp(7-aza)]N[3Pal(6-NH2)]Y(Carboxymethyl)IIK([CO-Piperazinyl(4-CH2COOH)])[Nle(6-morpholino)][4Pal][NMeY]C[PEG4]-NH2; thioether N-15),102,15.9,–,–,–
CC[C@H](C)[C@@H]1NC(=O)[C@H](Cc2ccc(OC)cc2)NC(=O)[C@H](Cc2ccc(N)nc2)NC(=O)[C@H](CC(N)=O)NC(=O)[C@H](Cc2cn(CC(=O)O)c3ccccc23)NC(=O)[C@H](C(C)C)NC(=O)[C@H](Cc2cccc(Cl)c2)N(C)C(=O)[C@H](C(C)C)NC(=O)[C@H](C)NC(=O)CSC[C@@H](C(=O)NCCOCCOCCOCCOCCC(N)=O)NC(=O)[C@H](Cc2ccc(O)cc2)N(C)C(=O)[C@H](Cc2ccncc2)NC(=O)[C@H](CCCCNC(=O)N2CCN(CC(=O)O)CC2)NC(=O)[C@H](CCCCN2CCOCC2)NC(=O)[C@H]([C@@H](C)CC)NC1=O [compound 8] ({CH2CO}-AV[NMePhe(3-Cl)]V[Trp(1-CH2COOH)]N[3Pal(6-NH2)]Y(Me)II[Nle(6-morpholino)]K([CO-Piperazinyl(4-CH2COOH)])[4Pal][NMeY]C[PEG4]-NH2; thioether N-15),113,10.7,–,–,–
CCC(CC)[C@@H]1NC(=O)[C@H](Cc2ccc(OCC(=O)O)cc2)NC(=O)[C@H](Cc2ccc(N)nc2)NC(=O)[C@H](CC(N)=O)NC(=O)[C@H](Cc2cn(CC(=O)O)c3ccccc23)NC(=O)[C@H](C(C)C)NC(=O)[C@H](Cc2cccc(Cl)c2)N(C)C(=O)[C@H](C(C)C)NC(=O)[C@H](C)NC(=O)CSC[C@@H](C(=O)NCCOCCOCCOCCOCCC(N)=O)NC(=O)[C@H](Cc2ccc(O)cc2)N(C)C(=O)[C@H](Cc2ccncc2)NC(=O)[C@H](CCCCN2CCOCC2)NC(=O)[C@H](CCC(N)=O)NC(=O)[C@H]([C@@H](C)CC)NC1=O [compound 47] ({CH2CO}-AV[NMePhe(3-Cl)]V[Trp(1-CH2COOH)]N[3Pal(6-NH2)]Y(Carboxymethyl)[Nva(3-Et)]IQ[Nle(6-morpholino)][4Pal][NMeY]C[PEG4]-NH2; thioether N-15),249,116,–,–,–
CCC(CC)[C@@H]1NC(=O)[C@H](Cc2ccc(OCC(=O)O)cc2)NC(=O)[C@H](Cc2ccc(O)cc2)NC(=O)[C@H](CC(N)=O)NC(=O)[C@H](Cc2cn(CC(=O)O)c3ccccc23)NC(=O)[C@H](C(C)C)NC(=O)[C@H](Cc2cccc(Cl)c2)N(C)C(=O)[C@H](C(C)C)NC(=O)[C@H](C)NC(=O)CSC[C@@H](C(=O)NCCOCCOCCOCCOCCC(N)=O)NC(=O)[C@H](Cc2ccc(O)cc2)N(C)C(=O)[C@H](Cc2cccc(C(=O)O)c2)NC(=O)[C@H](Cc2c[nH]cn2)NC(=O)[C@H](CCC(N)=O)NC(=O)[C@H]([C@@H](C)CC)NC1=O [compound 98] ({CH2CO}-AV[NMePhe(3-Cl)]V[Trp(1-CH2COOH)]NYY(Carboxymethyl)[Nva(3-Et)]IQH[Phe(3-COOH)][NMeY]C[PEG4]-NH2; thioether N-15),–,–,145,20.6,–
CC[C@H](C)[C@@H]1NC(=O)[C@H](Cc2ccc(OCC(=O)O)cc2)NC(=O)[C@H](Cc2ccc(O)cc2)NC(=O)[C@H](CC(N)=O)NC(=O)[C@H](Cc2c[nH]c3ncccc23)NC(=O)[C@H](C(C)C)NC(=O)[C@H](Cc2cccc(Cl)c2)N(C)C(=O)[C@H](C(C)C)NC(=O)[C@H](C)NC(=O)CSC[C@@H](C(=O)NCCOCCOCCOCCOCCC(N)=O)NC(=O)[C@H](Cc2ccc(O)cc2)N(C)C(=O)[C@H](CCC(=O)NCCOCCOCCOCCOCCC(=O)O)NC(=O)[C@H](CCCNC(=N)N)NC(=O)[C@H](CCC(N)=O)NC(=O)[C@H]([C@@H](C)CC)NC1=O [compound 143] ({CH2CO}-AV[NMePhe(3-Cl)]V[Trp(7-aza)]NYY(Carboxymethyl)IIQRE(PEG4)[NMeY]C[PEG4]-NH2; thioether N-15),–,–,271,59.1,–
CC[C@H](C)[C@@H]1NC(=O)[C@H](Cc2ccc(OCC(=O)N3CCN(CC(=O)O)CC3)cc2)NC(=O)[C@H](Cc2ccc(O)cc2)NC(=O)[C@H](CC(N)=O)NC(=O)[C@H](Cc2cn(CC(=O)O)c3ccccc23)NC(=O)[C@H](C(C)C)NC(=O)[C@H](Cc2cccc(Cl)c2)N(C)C(=O)[C@H](C(C)C)NC(=O)[C@H](C)NC(=O)CSC[C@@H](C(=O)NCCOCCOCCOCCOCCC(N)=O)NC(=O)[C@H](Cc2ccc(O)cc2)N(C)C(=O)[C@H](Cc2ccncc2)NC(=O)[C@H](CCCCN2CCOCC2)NC(=O)[C@H](CCC(=O)NC[C@H](O)[C@@H](O)[C@H](O)[C@H](O)CO)NC(=O)[C@H]([C@@H](C)CC)NC1=O [compound 40],42.6,43.8,–,–,–
CC[C@H](C)[C@@H]1NC(=O)[C@H](Cc2ccc(OCC(=O)O)cc2)NC(=O)[C@H](Cc2ccc(N)nc2)NC(=O)[C@H](CC(N)=O)NC(=O)[C@H](Cc2c[nH]c3ccccc23)NC(=O)[C@H](C(C)C)NC(=O)[C@H](Cc2cccc(Cl)c2)N(C)C(=O)[C@H](C(C)C)NC(=O)[C@H](C)NC(=O)CSC[C@@H](C(=O)NCC(=O)N[C@@H](CCCCN=[N+]=[N-])C(N)=O)NC(=O)[C@H](Cc2ccc(O)cc2)N(C)C(=O)[C@H](Cc2cccc(C(=O)O)c2)NC(=O)[C@H](CCCNC(=N)N)NC(=O)[C@H](CCC(N)=O)NC(=O)[C@H]([C@@H](C)CC)NC1=O [compound 149],–,–,28.1,3.57,–
